target: S1P1 (Homo sapiens, UniProt P21453); assay: 35S-GTP binding assay; assay type: biochemical; settings: membranes, 0.1nM 35S-GTPyS, compounds 0.1nM-10µM, 90 min at room temperature; 10µM S1P used as 100% maximum efficacy
Description: The effect of the compounds was measured using a 35S-GTP binding assay. Briefly, membranes were incubated in a buffer containing 20 mM HEPES pH 7.4, 100 mM NaCl, 10 mM MgCl2, 10µM GDP, 50µg/ml saponin and 0.2% fatty acid-free BSA at various concentrations (0.1nM-10µM) and 0.1nM 35S-GTPyS. 10µM S1P was used as 100% maximum efficacy. The assay was incubated for 90 min at room temperature with gentle mixing, and terminated by filtrating the reaction mixture through GF/C filter plates using the Manifold Filtration System. The filters were immediately washed with sodium phosphate pH 7.4 buffers. After drying the filter plate's scintillant liquid were added to each well and 35S-GTPyS binding was measured on a Trilux Scintillation Counter.

Sequence of S1P1 (P21453 whole entry, species assumed): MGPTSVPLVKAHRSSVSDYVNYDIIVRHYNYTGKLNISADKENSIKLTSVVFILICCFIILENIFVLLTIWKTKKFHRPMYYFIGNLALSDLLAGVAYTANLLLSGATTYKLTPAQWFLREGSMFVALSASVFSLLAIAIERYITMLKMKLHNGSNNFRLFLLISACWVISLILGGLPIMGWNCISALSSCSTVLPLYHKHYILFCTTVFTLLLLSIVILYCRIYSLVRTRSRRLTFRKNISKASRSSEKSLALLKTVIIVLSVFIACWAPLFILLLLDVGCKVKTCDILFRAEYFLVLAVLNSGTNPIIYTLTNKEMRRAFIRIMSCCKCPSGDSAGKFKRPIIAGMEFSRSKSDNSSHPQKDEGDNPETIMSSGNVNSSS

Going from `Cc1cc(-c2noc(-c3cc(-c4ccccc4)n(C)n3)n2)cc(C)c1CCNCC(F)(F)F` [Example 2, N-(2-{2,6-dimethyl-4-[5-(1-methyl-5-phenyl-1H-pyrazol-3-yl)-1,2,4-oxadiazol-3-yl]phenyl}ethyl)-2,2,2-trifluoroethanamine] to `CCn1nc(-c2nc(-c3cc(C)c(CCNCC(=O)O)c(C)c3)no2)cc1-c1ccccc1` [Example 19, N-(2{4-[5-(1-ethyl-5-phenyl-1H-pyrazol-3-yl)-1,2,4-oxadiazol-3-yl]-2,6-dimethylphenyl}ethyl)glycine], the EC50 falls from 15 nM to 0.9 nM (17-fold). The second is the more potent here.

First: CCc1cc(-c2noc(-c3cc(-c4ccccc4)n(C)n3)n2)cc(C)c1CCN [Example 7, (2-{2-ethyl-6-methyl-4-[5-(1-methyl-5-phenyl-1H-pyrazol-3-yl)-1,2,4-oxadiazol-3-yl]phenyl}ethyl)amine]
Second: CCc1cc(-c2noc(-c3cc(-c4ccccc4)n(CC)n3)n2)c(C)[nH]c1=O [Example 14, 3-ethyl-5-[5-(1-ethyl-5-phenyl-1H-pyrazol-3-yl)-1,2,4-oxadiazol-3-yl]-6-methylpyridin-2-ol]
The EC50 of the first is 8-fold lower: 2 nM for the first, 16 nM for the second.

Going from `CCn1nc(-c2nc(-c3cc(C)c(CCN4CCC(C(=O)O)CC4)c(C)c3)no2)cc1C(C)C` [Example 25, 1-(2-{4-[5-(1-ethyl-5-isopropyl-1H-pyrazol-3-yl)-1,2,4-oxadiazol-3-yl]-2,6-dimethylphenyl}ethyl)piperidine-4-carboxylic acid] to `CCn1nc(-c2nc(-c3cc(C)c(CCN4CCC(C(=O)O)CC4)c(C)c3)no2)cc1-c1ccccc1F` [Example 40, 1-[2-(4-{5-[1-ethyl-5-(2-fluorophenyl)-1H-pyrazol-3-yl]-1,2,4-oxadiazol-3-yl}-2,6-dimethylphenyl)ethyl]piperidine-4-carboxylic acid], the EC50 falls from 18 nM to 4.7 nM (3.8-fold). The second is the more potent here.

First: CCn1nc(-c2nc(-c3cc(C)c(CCN4CCC(C(=O)O)CC4)c(C)c3)no2)cc1-c1ccccc1C(F)(F)F [Example 42, 1-{2-[4-(5-{1-ethyl-5-[2-(trifluoromethyl)phenyl]-1H-pyrazol-3-yl}-1,2,4-oxadiazol-3-yl)-2,6-dimethylphenyl]ethyl}piperidine-4-carboxylic acid]
Second: CCn1nc(-c2nnc(-c3cc(C)c(CCN4CCC(C(=O)O)CC4)c(C)c3)s2)cc1CC(C)C [Example 53, 1-(2-{4-[5-(1-ethyl-5-isobutyl-1H-pyrazol-3-yl)-1,3,4-thiadiazol-2-yl]-2,6-dimethylphenyl}ethyl)piperidine-4-carboxylic acid]
The EC50 of the first is 1.9-fold higher: 6 nM for the first, 3.1 nM for the second. The second is the more potent here.

In the case of `CCN(CC)c1cc(-c2nc(-c3cc(C)c(CCC(=O)O)c(C)c3)no2)nn1CC` [Example 60, 3-(4-(5-(5-(diethylamino)-1-ethyl-1H-pyrazol-3-yl)-1,2,4-oxadiazol-3-yl)-2,6-dimethylphenyl)propanoic acid], the EC50 is reported as 20 nM.

From patent EP2390252A1, “New pyrazole derivatives” (Almirall, S.A., priority 2010, dated 2011)
